We go through one compound from patent US20240182526A1, “COMPOSITIONS AND METHODS FOR MODULTING INFLAMMATORY AND DEGENERATIVE DISORDER” (University of Southern California, priority 2021, published 2024).

One assay deals with T1, gp130 pY814 (Sus scrofa, UniProt A0A4X1SIN4).
T1 construct: endogenous in cells; host or cells: pig articular chondrocytes (Yucatan minipig)
The experiment in a line: Western blot of gp130 pY814 in OSM-stimulated pig articular chondrocytes. To be noted: with OSM, 4 and 24 hours. The class given is cell-based. How it is done: For standard western blot, treated and non-treated cells were lysed in RIPA Lysis and Extraction Buffer (Pierce, Rockford, IL) containing protease inhibitors (Pierce) followed by sonication with a 15-second pulse at a power output of 2 using the VirSonic 100 (SP Industries Company, Warminster, PA). Protein concentrations were determined by BCA protein assay (Pierce). Proteins were resolved with SDS-PAGE utilizing 4-15% Mini-PROTEAN TGX Precast Gels and transferred to Trans-Blot Turbo Transfer Packs with a 0.2-μm pore-size nitrocellulose membrane. The SDS-PAGE running buffer, 4-15% Mini-PROTEAN TGX Precast Gels, Trans-Blot Turbo Transfer Packs with a 0.2-μm pore-size nitrocellulose membrane was purchased from Biorad (Hercules, CA). Nitrocellulose membranes were blocked in 5% nonfat milk in 0.05% (v/v) Tween 20 (PBST) (Corning, Manassas, VA). Membranes were then incubated with primary antibodies p-gp130 Y814 (Evseenko lab, AbClonal), p-AKT (cat #4060, Cell Signaling), p-ERK 1/2 (cat #9106, Cell Signaling), p-Y416-SRC (cat #1246F, Novus Biologicals), p-gp130 (cat #1453R, Bioss USA) and p-NFκBp65 (cat #8242, Cell Signaling), and/or YAP1 (cat #4912, Cell Signaling). Histone H3 (cat #9515, Cell Signaling) was used as loading control. […] Quantification of blots was performed using ImageJ 1.44 followed by Prism9 for analysis.
Background: In western blotting, separated proteins are transferred to a membrane and probed.

Another assay deals with pNF-κB p65. The experiment in a line: Western blot of pNF-κB p65 in pig articular chondrocytes. The class given is cell-based. The conditions noted are these: pig articular chondrocytes, OSM, 24 hours. How it is done:
For standard western blot, treated and non-treated cells were lysed in RIPA Lysis and Extraction Buffer (Pierce, Rockford, IL) containing protease inhibitors (Pierce) followed by sonication with a 15-second pulse at a power output of 2 using the VirSonic 100 (SP Industries Company, Warminster, PA). Protein concentrations were determined by BCA protein assay (Pierce). Proteins were resolved with SDS-PAGE utilizing 4-15% Mini-PROTEAN TGX Precast Gels and transferred to Trans-Blot Turbo Transfer Packs with a 0.2-μm pore-size nitrocellulose membrane. The SDS-PAGE running buffer, 4-15% Mini-PROTEAN TGX Precast Gels, Trans-Blot Turbo Transfer Packs with a 0.2-μm pore-size nitrocellulose membrane was purchased from Biorad (Hercules, CA). Nitrocellulose membranes were blocked in 5% nonfat milk in 0.05% (v/v) Tween 20 (PBST) (Corning, Manassas, VA). Membranes were then incubated with primary antibodies p-gp130 Y814 (Evseenko lab, AbClonal), p-AKT (cat #4060, Cell Signaling), p-ERK 1/2 (cat #9106, Cell Signaling), p-Y416-SRC (cat #1246F, Novus Biologicals), p-gp130 (cat #1453R, Bioss USA) and p-NFκBp65 (cat #8242, Cell Signaling), and/or YAP1 (cat #4912, Cell Signaling). Histone H3 (cat #9515, Cell Signaling) was used as loading control. After washing in PBS containing 0.05% (v/v) Tween 20 (PBST), membranes were incubated with rabbit (cat #31460, Thermo Scientific) or mouse IgG-HRP (cat #31430, Thermo Scientific) secondary antibodies. After washing, membranes were developed with the Clarity Western ECL Blotting Substrate (Hercules, CA). Quantification of blots was performed using ImageJ 1.44 followed by Prism9 for analysis.

The test system of assay [1] is ADAMTS4, ADAMTS5 and MMP13 transcription. The experiment in a line: qPCR of matrix-degrading genes in OSM-stimulated pig articular chondrocytes. The conditions noted are these: 48 hours. The class given is cell-based. How it is done:
Quantitative Real-Time PCR. Power SYBR Green (Applied Biosystems) RT-PCR amplification and detection was performed using an Applied Biosystems Step One Plus Real-Time PCR machine. The comparative Ct method for relative quantification (2-ΔΔCt) was used to quantitate gene expression. TBP (TATA-box binding protein) was used for gene normalization and expressed relative to a calibrator (sample in each set with lowest expression). Q-PCR for was conducted using the following primers: human: TBP forward, 5′ GATGGACGTTCGGTTTAGG 3′ (SEQ ID NO:28); TBP reverse, 5′ AGCAGCACAGTACGAGCAA 3′ (SEQ ID NO:29), MMP13 forward, 5′ […] 3′(SEQ ID NO:30); MMP13 reverse, 5′ GAACCCCGCATCTTGGCTT 3′ (SEQ ID NO:31), ADAMTS5 forward 5′ […] 3′ (SEQ ID NO:32); ADAMTS5 reverse, 5′ […] 3′ (SEQ ID NO:33), ADAMTS4 forward 5′ […] 3′ (SEQ ID NO:34); ADAMTS4 reverse, 5′ […] 3′ (SEQ ID NO:35), Collagen II forward, 5′ […] 3′ (SEQ ID NO:36); Collagen II reverse 5′ […] 3′ (SEQ ID NO:37); Aggrecan forward, 5′ AGGCAGCGTGATCCTTACC 3′ (SEQ ID NO:38); Aggrecan reverse, 5′ […] 3′ (SEQ ID NO:39). Cells were treated with 10 ng/mL OSM and/or with 5 μM SRC (SU6656) inhibitor, 10 ng/mL OSM and/or 50 ng/mL WT/F814 plasmids; 10 ng/mL OSM and/or 100 or 300 ug/mL of peptide QQpYF (Evseenko lab, Thermo Scientific); 10 uM R805 and/or 10 ng/mL OSM.
For orientation: Real-time PCR tracks product formation cycle by cycle.

The subject of assay [2] is mouse skin excisional wound. The experiment in a line: Wound-induced hair neogenesis (WIHN) assay, skin excisional wound. The class given is in vivo. How it is done: Single-cell sequencing using 10× Genomics. Single cell samples were prepared using Next GEM Single Cell 5′ v2 (dual index) and Chip Kit (10× Genomics) according to the manufacturer's protocol. Briefly samples were FACS sorted using DAPI to select live cells followed by resuspension in 0.04% BSA-PBS. Nearly 1200 cells/μl were added to each well of the chip with a target cell recovery estimate of 10000 cells. Thereafter Gel bead-in Emulsions (GEMs) were generated using GemCode Single-Cell Instrument. GEMs were reverse transcribed, droplets were broken and single stranded cDNA was isolated. cDNAs were cleaned up with DynaBeads and amplified. Finally, cDNAs were ligated with adapters, post-ligation products were amplified, cleaned-up with SPRIselect and purified libraries were sequenced on Novaseq.
Wound-induced hair neogenesis assay. The WHIN assay was previously described. Briefly, a 1.5×1.5 cm square full thickness wound was excised on the posterior dorsum of 6-week-oldf mice, and observed for hair neogenesis and wound histology. Mice were anesthetized using isofluorane, full thickness skin was excised, and analgesic Buprenorphine SR (0.5 mg/kg) was given by intraperitoneal injection (IP) at the beginning of the procedure. Additional DietGel Boost (ClearH2O) was placed on the bottom of the cage during the first week post-operation. For R805-treatment, R805 (10 μM or 20 μM) was applied topically to the wound of WT mice.
Alkaline phosphatase (ALP) stain. To detect newly forming dermal papillae, alkaline phosphatase staining was performed as previously reported. Briefly, full thickness wounds were excised and epidermis separated from the dermis using 20 mM EDTA. The dermis was fixed in acetone overnight at 4° C., and washed in PBS several times. The dermis was pre-incubated in ALP buffer (0.1 M Tris-HCl, 0.1 M NaCl, 5 mM MgCl2 and 0.1% Tween-20) for 30 min, incubated with BCIP/NBT Color Development Substrate (Promega, Madison, WI, USA) in ALP buffer at 37° C. until color development. The reaction was stopped by washing with pH 8.0 Tris-EDTA and the tissue stored in PBS with sodium azide. 5 wounds were calculated for each strain of mice.
Hair fiber length quantification. To quantify regenerated hair fiber length, hair fibers from respective wounds were plucked, aligned and photographed next to a ruler under the dissecting microscope. The length of the hair fibers was measured and analyzed using ImageJ. 3-4 hairs were randomly plucked from each wound and analyzed.

Setting [3] is: topical on WT mouse wound, PWD 21.

“Also recorded” adds a separate entry of the source.

T1 sequence (A0A4X1SIN4 23-917): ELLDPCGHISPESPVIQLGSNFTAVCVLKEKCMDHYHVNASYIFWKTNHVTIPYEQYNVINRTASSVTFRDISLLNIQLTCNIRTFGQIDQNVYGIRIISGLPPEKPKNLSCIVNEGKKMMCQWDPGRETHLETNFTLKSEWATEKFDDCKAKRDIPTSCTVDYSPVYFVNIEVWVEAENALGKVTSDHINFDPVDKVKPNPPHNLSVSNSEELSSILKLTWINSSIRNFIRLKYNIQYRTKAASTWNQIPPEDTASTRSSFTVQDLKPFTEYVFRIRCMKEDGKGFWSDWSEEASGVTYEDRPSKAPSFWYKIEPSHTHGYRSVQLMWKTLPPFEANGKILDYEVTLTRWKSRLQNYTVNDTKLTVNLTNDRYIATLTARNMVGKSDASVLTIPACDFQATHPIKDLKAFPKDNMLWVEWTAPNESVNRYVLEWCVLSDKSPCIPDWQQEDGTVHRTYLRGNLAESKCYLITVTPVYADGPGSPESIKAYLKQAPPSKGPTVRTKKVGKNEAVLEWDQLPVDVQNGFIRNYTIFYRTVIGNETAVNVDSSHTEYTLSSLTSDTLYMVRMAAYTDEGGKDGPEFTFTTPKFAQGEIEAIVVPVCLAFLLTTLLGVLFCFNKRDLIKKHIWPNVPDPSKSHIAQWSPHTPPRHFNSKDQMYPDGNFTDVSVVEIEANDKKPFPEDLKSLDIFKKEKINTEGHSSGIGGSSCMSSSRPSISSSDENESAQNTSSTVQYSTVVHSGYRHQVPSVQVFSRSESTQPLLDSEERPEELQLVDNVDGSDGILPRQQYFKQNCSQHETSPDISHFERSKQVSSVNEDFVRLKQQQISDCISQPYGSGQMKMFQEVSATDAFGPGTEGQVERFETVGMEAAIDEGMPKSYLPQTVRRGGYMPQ

Consider `Cc1ccc(-c2csc(NC(=O)c3ccccn3)n2)cc1` [Peptide R805], for which the “OSM-stimulated activation of gp130 Y814 (protein expression of gp130 pY814)” value at gp130 pY814 is recorded as “prevents Y814 activation in response to IL-6 cytokines; also recorded: selectively inhibited OSM-stimulated activation of Y814”. The “OSM-stimulated activation of gp130 Y814 (protein expression of gp130 pY814)” value on gp130 pY814 (listed as CX-011) is on record as “potent inhibitor of OSM-stimulated activation of gp130 Y814”. Further, the “protein levels of pNF-κB p65 after OSM stimulation” value in the assay with pNF-κB p65 was “markedly suppressed”. Moreover, the “OSM-induced transcription of matrix-degrading genes (ADAMTS4, ADAMTS5, MMP13), qPCR” value in assay [1] was “able to decrease the MMP13 and ADAMTS4/5 gene expression”. Moreover, the “scRNA-seq macrophage clusters of skin wounds” value in assay [2] (PWD 14) is listed as “higher expression of genes characteristic of pro-regenerative/anti-inflammatory macrophages”. Moreover, the “hair fiber length and number of hair follicles” value in assay [2] (topical on WT mouse wound) is “increase of hair fiber length and number of hair follicles”. Moreover, in assay [2] (setting [3]), the “hair follicle neogenesis and dermal regeneration” value was “significant hair follicle neogenesis and dermal regeneration; also recorded: enhanced wound-induced hair neogenesis”; the “wound histology (thickness, contraction, collagen deposition)” value was “thicker, less contracted and shows less collagen deposition”.
